Calls of active or inactive are those of the source.
Legend:
HeLa = assay: HeLa cell cytotoxicity, dose response, cytotoxicity control for MITF activator project, CellTiter-Glo luminescence, cherry-pick samples (AID 540259); assay type: functional, cell-based; settings: Homo sapiens
H4 = assay: Luminescence Cell-Based Dose Response HTS to Identify Activators of 5'UTR Stem-Loop Driven Prion Protein mRNA Translation in H4 Neuroglioblastoma Cells. [Related pubchem assays: 1829 (Project Summary), 1814 (Primary HTS)]; assay type: functional; settings: Homo sapiens
[1] = Luminescence Cell-Based Dose Response HTS to Identify Activators of Luciferase Translation or Activity in H4 […] Cells. [Related pubchem assays: 1829 (Project Summary), 1814 (Primary HTS)]; assay type: functional
[2] = Luminescence Cell-Based Dose Response to Identify Activators of 5'UTR Stem-Loop Driven Prion Protein mRNA Translation in H4-C Neuroglioblastoma Cells. [Related pubchem assays: 1829 (Project Summary), 1814 (Primary HTS)]; assay type: functional
[3] = Luminescence Cell-Based Dose Confirmation to Identify Activators of 5'UTR Stem-Loop Driven Alpha-Synuclein mRNA Translation in H4 Neuroglioblastoma Cells. [Related pubchem assays: 1829 (Project Summary), 1814 (Primary HTS)]; assay type: functional
[4] = Luminescence Cell-Based Dose Confirmation HTS to Identify Activators of 5'UTR Stem-Loop Driven Alpha-Synuclein mRNA Translation in H4 Neuroglioblastoma Cells. [Related pubchem assays: 1829 (Project Summary), 1814 (Primary HTS)]; assay type: functional
[5] = Luminescence Cell-Based Dose Response to Identify Activators of Luciferase Translation or Activity in H4-C Neuroglioblastoma Cells. [Related pubchem assays: 1829 (Project Summary), 1814 (Primary HTS)]; assay type: functional
[6] = inhibitors of SNCA 5'UTR-driven reporter translation, confirmation, H4 neuroglioma cells, luminescence (AID 1988); assay type: functional, cell-based
cells [7] = assay type: functional, cell-based; settings: HEK-CNG
[8] = molecular target: T1, Neuropeptide Y receptor type 2 (Homo sapiens, UniProt P49146); assay: NPY-Y2 antagonist potency, selectivity check, dose response, counter-screen for NPY-Y1 antagonist project, cell-based (AID 1278); assay type: functional
T1 sequence (P49146 whole entry): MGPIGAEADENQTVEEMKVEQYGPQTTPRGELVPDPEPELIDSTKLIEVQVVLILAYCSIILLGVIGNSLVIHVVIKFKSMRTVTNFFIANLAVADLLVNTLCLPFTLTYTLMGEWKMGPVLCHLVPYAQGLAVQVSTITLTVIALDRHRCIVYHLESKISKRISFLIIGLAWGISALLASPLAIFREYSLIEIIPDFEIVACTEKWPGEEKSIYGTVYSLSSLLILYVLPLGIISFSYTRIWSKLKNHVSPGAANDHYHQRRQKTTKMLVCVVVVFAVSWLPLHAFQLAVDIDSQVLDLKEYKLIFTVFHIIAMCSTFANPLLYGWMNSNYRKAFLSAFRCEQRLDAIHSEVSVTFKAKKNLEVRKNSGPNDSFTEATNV

[9] = CEM21 lymphoblast cell cytotoxicity, dose response, cytotoxicity control for viral fusion inhibitor project, CellTiter-Glo luminescence, cherry-picked (AID 652042); assay type: functional, cell-based;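 further: potency for signal decrease meaning cytotoxicity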
[10] = Luminescence Cell-Based Dose Response HTS to Identify Inhibitors of 5'UTR Stem-Loop Driven Prion Protein mRNA Translation in H4 Neuroglioblastoma Cells. [Related pubchem assays: 1827 (Project Summary), 1813 (Primary HTS)]; assay type: functional
[11] = inhibitors of HIV Env-driven cell fusion, dose response, cherry-pick (AID 652057); assay type: functional, cell-based
[12] = inhibitors of clade B AD8 Env fusion, dose response, cell-based, cherry-pick (AID 652062); assay type: functional;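 further: luciferase signal from cell-cell fusion driven by HIV-1 clade B AD8 Env; potency is for inhibitors of fusion seen as a drop in luminescence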
Galanin receptor type 3 = Galanin receptor type 3 (Homo sapiens, UniProt O60755); assay: Fluorescence-based cell-based primary high throughput dose response assay to identify antagonists of the Galanin Receptor 3 (GalR3).; assay type: functional
Sequence of Galanin receptor type 3 (O60755 whole entry): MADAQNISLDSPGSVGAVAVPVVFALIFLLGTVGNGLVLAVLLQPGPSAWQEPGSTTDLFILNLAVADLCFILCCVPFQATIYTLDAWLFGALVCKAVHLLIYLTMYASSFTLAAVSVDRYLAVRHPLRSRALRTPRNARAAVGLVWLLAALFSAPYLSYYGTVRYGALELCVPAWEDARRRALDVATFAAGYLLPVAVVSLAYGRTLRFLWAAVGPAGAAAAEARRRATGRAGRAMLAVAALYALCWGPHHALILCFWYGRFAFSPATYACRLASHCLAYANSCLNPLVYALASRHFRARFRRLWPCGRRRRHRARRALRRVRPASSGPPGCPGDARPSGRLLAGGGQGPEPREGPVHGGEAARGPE

Jurkat = assay: antigen receptor-induced NF-kB inhibitors, dose response, Jurkat, luciferase reporter, luminescence, B- and T-cell (AID 489004); assay type: functional, cell-based; settings: Homo sapiens;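 further: NF-kB luciferase reporter Jurkat cells stimulated with PMA plus ionomycin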
cells [13] = assay: cells
[14] = cytotoxicity toward NIH3T3 fibroblasts, dose response, counter-screen, cell-based, ATP luminescence, mouse fibroblasts (AID 2010); assay type: functional;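 further: cells exposed to compound for about 90 hours before reading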
[15] = ZM109 Env clade C HIV-1 fusion inhibitors, dose response, HeLa effector, CEM target cells, luciferase, cherry-pick (AID 652058); assay type: functional, cell-based
[16] = inhibitors of firefly luciferase expression or activity, dose response, H4 neuroglioma cells, luminescence (AID 1990); assay type: functional, cell-based
[17] = cytotoxicity in HEK-293T NF-kB-Luc cells, dose response, cytotoxicity control for B/T-cell NF-kB inhibitor project, cell-based, uHTS hits (AID 489019); assay type: functional;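 further: IC50 reflects cytotoxicity as loss of cell viability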
[18] = off-target signal loss in HeLa-CEM21 co-culture – HeLa F-luc CTL cells, cherry-picked, counter-screen for HIV-1 Env fusion inhibitor project, dose response (AID 652040); assay type: functional, cell-based;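 further: potency for signal decrease marking cytotoxic or nonspecific inhibition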
[19] = molecular target: T2, Neuropeptide Y receptor type 1 (Homo sapiens, UniProt P25929); assay: NPY-Y1 receptor antagonist potency, dose response, cell-based (AID 1277); assay type: functional
T2 sequence (P25929 whole entry): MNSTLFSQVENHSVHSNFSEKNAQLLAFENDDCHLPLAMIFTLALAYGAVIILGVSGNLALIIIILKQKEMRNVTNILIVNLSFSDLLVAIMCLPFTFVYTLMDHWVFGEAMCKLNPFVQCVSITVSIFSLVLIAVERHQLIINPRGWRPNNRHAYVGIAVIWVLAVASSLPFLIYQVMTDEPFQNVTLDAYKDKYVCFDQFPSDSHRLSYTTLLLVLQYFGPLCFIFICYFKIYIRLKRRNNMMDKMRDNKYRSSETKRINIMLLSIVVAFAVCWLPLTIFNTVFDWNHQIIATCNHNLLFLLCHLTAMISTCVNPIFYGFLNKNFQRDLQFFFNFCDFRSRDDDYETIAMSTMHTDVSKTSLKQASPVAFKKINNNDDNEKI

INS1 = assay: beta cell apoptosis inhibitors, cytokine rescue, dose response, luminescence, retest (AID 449756); assay type: functional, cell-based; settings: Rattus norvegicus;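 further: cell death triggered by IL-1 beta plus TNF-alpha plus IFN-gamma mixture; protective hits raise ATP signal compared with cytokine alone wells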
[20] = inhibitors of intracellular T. cruzi replication, confirmation, NIH3T3 host cells, beta-gal luminescence (AID 2044); assay type: functional, cell-based;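 further: intracellular parasites grown in NIH/3T3 mouse fibroblasts as host cells; luminescent beta-galactosidase reporter signal from transgenic T. cruzi replicating inside host cells; inhibitors lower the luminescence signal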
[21] = molecular target: T3, COUP transcription factor 2 (Homo sapiens, UniProt P24468); assay: Luminescence-based cell-based high throughput dose response assay to identify inhibitors of COUP-TFII (NR2F2).; assay type: functional;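 further: HEK293 cells transiently cotransfected with COUP-TFII expression vector and reporter; luciferase reporter luminescence driven by COUP-TFII from the pX2-168 reporter plasmid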
T3 sequence (P24468 whole entry): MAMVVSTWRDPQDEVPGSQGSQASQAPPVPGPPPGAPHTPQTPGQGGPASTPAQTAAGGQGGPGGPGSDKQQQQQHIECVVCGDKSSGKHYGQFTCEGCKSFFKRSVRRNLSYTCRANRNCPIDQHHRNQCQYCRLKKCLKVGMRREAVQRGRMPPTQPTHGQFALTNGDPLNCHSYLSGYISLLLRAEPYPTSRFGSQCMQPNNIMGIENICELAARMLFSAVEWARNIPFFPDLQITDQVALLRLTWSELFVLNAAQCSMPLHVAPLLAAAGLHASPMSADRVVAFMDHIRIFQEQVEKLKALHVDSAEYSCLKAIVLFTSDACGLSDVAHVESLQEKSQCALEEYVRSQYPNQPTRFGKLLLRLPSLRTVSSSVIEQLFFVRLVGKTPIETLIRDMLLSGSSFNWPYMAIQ

[22] = molecular target: Glyceraldehyde-3-phosphate dehydrogenase (Homo sapiens, UniProt P04406)
Sequence of Glyceraldehyde-3-phosphate dehydrogenase (P04406 whole entry): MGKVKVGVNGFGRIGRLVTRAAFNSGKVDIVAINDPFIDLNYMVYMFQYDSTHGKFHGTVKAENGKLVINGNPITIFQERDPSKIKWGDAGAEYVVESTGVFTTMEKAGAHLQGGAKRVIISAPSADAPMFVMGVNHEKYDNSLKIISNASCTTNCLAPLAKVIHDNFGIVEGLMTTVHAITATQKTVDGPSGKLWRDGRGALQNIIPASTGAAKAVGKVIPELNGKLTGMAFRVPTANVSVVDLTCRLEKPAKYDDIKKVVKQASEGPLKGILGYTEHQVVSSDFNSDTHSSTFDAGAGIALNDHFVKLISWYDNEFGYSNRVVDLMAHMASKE

Bcl-2-related protein A1 [23] = molecular target: T4, Bcl-2-related protein A1 (Mus musculus, UniProt Q07440); assay: Bfl-1 binding inhibitors, SAR follow-up, biochemical, fluorescence polarization (AID 1070)
T4 sequence (Q07440 whole entry): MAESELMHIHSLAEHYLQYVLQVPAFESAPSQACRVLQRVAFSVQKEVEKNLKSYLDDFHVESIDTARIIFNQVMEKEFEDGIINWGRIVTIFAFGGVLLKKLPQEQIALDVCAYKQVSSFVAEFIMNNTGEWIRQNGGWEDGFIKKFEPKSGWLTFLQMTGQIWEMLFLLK

Bcl-2-related protein A1 [24] = molecular target: T4, Bcl-2-related protein A1; assay: Bfl-1 inhibitors blocking BH3 peptide binding, confirmation, biochemical, TR-FRET, mouse Bfl-1 (AID 621);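 further: TR-FRET binding of GST-Bfl-1 to FITC-labelled Bid peptide via terbium antibody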
Aminopeptidase N = molecular target: T5, Aminopeptidase N (Plasmodium falciparum FcB1/Columbia, UniProt O96935); assay: P. falciparum M1AAP inhibitors, biochemical, fluorogenic H-Leu-NHMec substrate, 1536-well (AID 1445); design: species or system Plasmodium falciparum 3D7, 3D7
T5 sequence (O96935 whole entry): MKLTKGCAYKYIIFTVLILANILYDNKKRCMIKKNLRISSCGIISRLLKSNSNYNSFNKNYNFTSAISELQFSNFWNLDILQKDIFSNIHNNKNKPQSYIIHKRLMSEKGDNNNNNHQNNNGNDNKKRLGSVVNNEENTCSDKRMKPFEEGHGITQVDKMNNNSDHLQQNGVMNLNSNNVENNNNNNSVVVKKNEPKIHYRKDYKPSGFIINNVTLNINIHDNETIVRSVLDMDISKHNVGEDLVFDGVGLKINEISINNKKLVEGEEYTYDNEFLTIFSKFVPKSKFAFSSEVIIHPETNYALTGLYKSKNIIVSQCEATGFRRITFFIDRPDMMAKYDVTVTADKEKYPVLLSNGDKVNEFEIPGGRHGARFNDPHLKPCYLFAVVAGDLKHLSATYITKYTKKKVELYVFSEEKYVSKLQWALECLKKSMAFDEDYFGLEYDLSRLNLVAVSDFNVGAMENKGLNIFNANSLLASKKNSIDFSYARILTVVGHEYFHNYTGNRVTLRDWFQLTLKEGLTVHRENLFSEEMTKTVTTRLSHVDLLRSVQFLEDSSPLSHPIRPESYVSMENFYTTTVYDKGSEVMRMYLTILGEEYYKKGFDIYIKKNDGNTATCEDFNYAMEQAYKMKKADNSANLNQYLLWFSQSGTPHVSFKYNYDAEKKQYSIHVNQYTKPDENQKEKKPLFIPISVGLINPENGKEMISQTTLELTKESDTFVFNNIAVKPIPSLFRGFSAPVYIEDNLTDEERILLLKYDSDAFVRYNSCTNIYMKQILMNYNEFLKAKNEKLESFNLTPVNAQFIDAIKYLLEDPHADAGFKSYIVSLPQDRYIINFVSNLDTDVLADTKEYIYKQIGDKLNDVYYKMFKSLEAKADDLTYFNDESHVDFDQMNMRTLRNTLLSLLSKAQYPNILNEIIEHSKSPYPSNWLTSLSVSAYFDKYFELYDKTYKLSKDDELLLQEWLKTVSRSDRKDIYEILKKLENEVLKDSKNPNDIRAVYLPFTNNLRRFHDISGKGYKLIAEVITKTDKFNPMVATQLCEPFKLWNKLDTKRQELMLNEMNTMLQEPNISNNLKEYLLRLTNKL

Procathepsin L = Procathepsin L (Homo sapiens, UniProt P07711); assay: cathepsin L inhibitors, dose response, counter-screen for M1/M17 aminopeptidase inhibitor project, biochemical, QFRET, 1536-well (AID 2214)
Sequence of Procathepsin L (P07711 whole entry): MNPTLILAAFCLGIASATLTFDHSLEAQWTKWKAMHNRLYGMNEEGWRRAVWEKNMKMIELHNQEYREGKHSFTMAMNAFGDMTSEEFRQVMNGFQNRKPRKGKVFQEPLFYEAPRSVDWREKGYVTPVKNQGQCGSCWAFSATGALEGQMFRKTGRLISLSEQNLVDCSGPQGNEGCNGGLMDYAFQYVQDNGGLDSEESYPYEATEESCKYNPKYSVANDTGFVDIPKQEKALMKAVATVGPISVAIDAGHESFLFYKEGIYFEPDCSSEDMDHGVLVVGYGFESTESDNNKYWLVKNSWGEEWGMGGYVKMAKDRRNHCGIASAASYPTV

Aspartyl aminopeptidase = Aspartyl aminopeptidase (Plasmodium falciparum 3D7, UniProt Q8I2J3); assay: Counterscreen for inhibitors of M1 and M17 aminopeptidases: QFRET-based biochemical high throughput dose response assay for inhibitors of the Plasmodium falciparum M18 Aspartyl Aminopeptidase (PFM18AAP). [Related PubChem assays: 1619 (Screening assay (M17LAP inhibitors).), 1445 (Screening assay (M1AAP inhibitors).)]
Sequence of Aspartyl aminopeptidase (Q8I2J3 whole entry): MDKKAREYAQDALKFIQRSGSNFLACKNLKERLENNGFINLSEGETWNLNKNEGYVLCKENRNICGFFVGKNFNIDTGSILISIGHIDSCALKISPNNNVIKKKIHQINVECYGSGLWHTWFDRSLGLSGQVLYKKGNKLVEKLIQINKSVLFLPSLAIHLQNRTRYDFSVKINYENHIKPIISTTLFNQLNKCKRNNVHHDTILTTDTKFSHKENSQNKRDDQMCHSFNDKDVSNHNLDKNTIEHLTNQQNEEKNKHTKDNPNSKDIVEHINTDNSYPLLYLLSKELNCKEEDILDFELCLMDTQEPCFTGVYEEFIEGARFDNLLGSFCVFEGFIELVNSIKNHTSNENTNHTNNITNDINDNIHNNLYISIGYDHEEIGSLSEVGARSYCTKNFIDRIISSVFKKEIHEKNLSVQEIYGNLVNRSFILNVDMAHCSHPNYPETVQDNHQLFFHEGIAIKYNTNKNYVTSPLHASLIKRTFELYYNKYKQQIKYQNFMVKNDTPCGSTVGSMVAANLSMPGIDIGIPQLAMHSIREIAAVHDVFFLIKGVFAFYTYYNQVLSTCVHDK

SMILES: COc1cccc(/C(C)=N/N=C(\C)c2cccc(OC)c2)c1
- AC50 (HeLa): 64.5 µM (active)
- EC50 (H4): 38.7 µM (active)
- EC50 [1]: 0.488 µM (active)
- EC50 [2]: 1.47 µM (active)
- EC50 [3]: 0.419 µM (active)
- EC50 [4]: < 0.1 µM (active)
- EC50 [5]: 0.36 µM (active)

SMILES: CCCCCCn1c2c(c(=N)c3c1CCC3)CCC2
- EC50 [6]: 6.52 µM (active)
- EC50 (cells [7]): > 29.9 µM (inactive)
- IC50 [8]: 14.6 µM (not active)
- AC50 [9]: 3.33 µM (active)
- EC50 [10]: 14.3 µM (active)
- AC50 [11]: 6.91 µM (active)
- AC50 [12]: 3.19 µM (active)
- IC50 (Galanin receptor type 3): 8.41 µM (active)
- IC50 (Jurkat): 7.15 µM (active)
- EC50 (cells [13]): 0.007 µM (active)
- EC50 [14]: > 60 µM (not active)
- AC50 [15]: 0.949 µM (active)
- EC50 [16]: 8.02 µM (active)
- IC50 [17]: > 80 µM (inactive)
- AC50 [18]: > 70 µM (inactive)
- IC50 [19]: 8.75 µM (active)
- AC50 (INS1): 2.04 µM (active)
- EC50 [20]: < 0.1 µM (active)
- IC50 [21]: 3.52 µM (active)

SMILES: Cc1ccc(Cl)c(N2C(=O)C(Cl)=C(Cl)C2=O)c1Cl
- IC50 [22]: > 100 µM (not active)
- IC50 (Bcl-2-related protein A1 [23]): > 100 µM (not active)
- IC50 (Bcl-2-related protein A1 [24]): 20.1 µM (active)

SMILES: COc1ccc(C2CC(c3c(-c4ccccc4)c4cc(Cl)ccc4[nH]c3=O)=NN2C(=O)CCC(=O)O)cc1 (configuration not stated)
- IC50 (Aminopeptidase N): 4.93 µM (active)
- IC50 (Procathepsin L): > 59.6 µM (not active)
- IC50 (Aspartyl aminopeptidase): > 73.5 µM (not active)
